Columns and labels:
[1] = Acute toxicity test, oral (Experiment 3); settings: mouse, in vivo, suspended in 0.5% sodium carboxymethyl cellulose, male MCH mice, 14 days observation
Text: The compound listed in Table 7 and suspended in 0.5% sodium carboxymethyl cellulose was orally administered to male MCH mice (6 weeks old: 5 animals per test group).
During the test, the mice were able to take food and water freely.

aldose reductase [2] = biological target: T1, aldose reductase (Rattus norvegicus, UniProt P07943); assay: Aldose Reductase Inhibition Test (Experiment 1); format: biochemical, rat (male SD rat crystalline lens); settings: DL-glycerine aldehyde 10 mM, pH 6.2, 30° C., 5 min; for inhibition at 50 µM: final concentration 5×10^-5 M (values without asterisk); for inhibition at 1 µM: *Concentration of 10^-6 M
T1 construct: their crystalline lenses were immediately removed and stored at -80° C; The lenses were homogenized; from tissue; host or cells: crystalline lens of six-week-old male SD rats (homogenate supernatant, dialysed)
Method: (§1) Six-week-old male SD rats were killed under ether anesthesia and their crystalline lenses were immediately removed and stored at -80° C. The lenses were homogenized in 3 volumes of 135 mM sodium potassium phosphate buffer (pH: 7.0) and centrifuged at a rate of 30,000 rpm for 30 min. The supernatant was dialyzed overnight against 0.05M sodium chloride, to produce an aldose reductase solution. All operations were conducted at 4° C. The enzyme solution was stored at -80° C.
(§2) The activity of aldose reductase was determined according to a slight modification of the method of J. H. Kinoshita et al [J. Biol. Chem., 240, 877 (1965)]. Namely, 0.1 ml of DL-glycerine aldehyde (final concentration: 10 mM) was added to 0.9 ml of 100 mM sodium potassium phosphate buffer (pH 6.2) which contained lithium sulfate (final concentration: 400 mM), reduced nicotinamide adenine dinucleotide phosphate (final concentration: 0.15 mM), the enzyme solution, and the compound to be tested (final concentration: 5×10^-5 M or 10^-6 M), and then the reaction was conducted at 30° C. for 5 min. […] The maximum reducing rate of the absorbance (U) during the reaction was determined. By substracting, from this value, the maximum reducing rate (Uo) at 340 nm of the reaction solution before the addition of the substrate (DL-glycerine aldehyde), the reaction rate (V) (V=U-Uo) was calculated as a true reaction rate in the presence of the compound to be tested.
(§3) The same procedure was repeated except for the absence of the compound to be tested. A true reaction rate (Vo) in case the enzyme was not inhibited was calculated (Vo =U'-Uo '). The inhibitory activity of aldose reductase was determined by the following formula. [formula]

aldose reductase [3] = biological target: T1, aldose reductase; assay: Aldose reductase inhibition, IC50 determination (Experiment 2); format: biochemical, rat (male SD rat crystalline lens); settings: calculated from inhibitions at three final concentrations; DL-glycerine aldehyde 10 mM, pH 6.2, 30° C.
Method: as §1, with “The lenses were homogenized in 3 volumes of 135 mM sodium potassium phosphate buffer (pH: 7.0) and centrifuged at a rate of 30,000 rpm for 30 min.” left out
as §2, with “Namely,” for “The activity of aldose reductase was determined according to a slight modification of the method of J. H. Kinoshita et al [J. Biol. Chem., 240, 877 (1965)]. Namely,”
as §3
In the same manner as Experiment 1, the inhibitions at final concentrations of 10^-6, 10^-7 and […] for the compound to be tested were calculated.

Compound | LD50 at 336 h [1] [mg/kg] | inhibition at 50 µM (aldose reductase [2]) [%] | IC50 (aldose reductase [3]) [nM] | inhibition at 1 µM (aldose reductase [2]) [%]
COC(=O)Cn1nnnc1-c1ccc(C)cc1 [Compound 1-7, Methyl 5-(4-methylphenyl)-1-tetrazoleacetate] | > 3000 | 59 | – | –
O=C(O)Cn1nnnc1-c1ccccc1 [Compound 3-1, 5-Phenyl-1-tetrazoleacetic acid] | > 3000 | – | 32 | 97
Cc1ccc(-c2nnnn2CC(=O)O)cc1 [Compound 3-6, 5-(4-Methylphenyl)-1-tetrazoleacetic acid] | > 3000 | – | 25 | 98
O=C(O)Cn1nnnc1-c1cccc(NC(=O)C(=O)O)c1 [Compound 3-12, 3'-(1-Carboxymethyl-tetrazol-5-yl)oxanilic acid] | > 3000 | 97 | 31 | –

Source: patent USRE35281E, “Tetrazole derivatives and aldose reductase inhibition therewith” (Wakamoto Pharmaceutical Co., Ltd., priority 1989, dated 1996)
